Test results: patent US8088426B2, “Kokumi flavour compounds and use” (priority 2005, dated 2012)
Entries after “also recorded” stand apart in the source; their conditions may differ.

Experiments:
Assay type in all cases: in vivo
[1] = test system: trained sensory panel; experiment: Sensory triangle test, kokumi taste in chicken broth; conditions: for Sensory descriptors: pH 6.5, versus broth without additives
Experimental: Unless otherwise indicated, all sensory tests are triangle tests and are performed according to the guidelines in “Amtliche Sammlung von Untersuchungsverfahren nach § 35 LMBG (Lebensmittel-und Bedarfsgegenständegesetz)”; L 00.90 7, Untersuchung von Lebensmitteln, Sensorische Prüfverfahren, Dreiecksprüfung (Übernahme der gleichnahmigen Deutschen Norm DIN ISO 4120, Ausgabe Januar 1995), as follows:
The sensory panel is trained to evaluate the taste of aqueous solutions (4 ml each) of the following standard taste compounds by using a triangle test as described in the literature (Wieser and Belitz, Z. Lebensm. Unters. Forsch., 1975, 159, 65-72): sucrose (40 mmol/L) for sweet taste; citric acid (5 mmol/L) for sour taste; NaCl (12 mmol/L) for salt taste; caffeine (2 mmol/L) for bitter taste; and monosodium glutamate (MSG) (6 mmol/L) for umami taste. For kokumi taste, a solution of GSH (glutathione, 10 mmol/L) in diluted chicken broth concentrate (Goumet Bouillon Huhn, Maggi, Singen, Germany; 3 g/100 g bottled water (Evian®)) is prepared and compared to the taste of chicken broth with no glutathione added.
All sensory analyses are performed in a sensory panel room at 22-25° C. over three different sessions by a trained panel of 8 to 10 individuals.
For recording the taste profiles, samples are prepared as indicated in the examples below. Taste profiles of samples are determined in a triangle test in three different sessions. Panellists refrain from eating or drinking for at least 1 hour prior to the session. At the start of the session and before each trial, the subject rinsed with water and expectorated. The participants receive a set of two blanks and one taste sample. Liquid samples are swirled around in the mouth briefly and expectorated. Solid samples are chewed for 20 seconds and then expectorated. […] Each sample with additive is compared to two reference samples without additives. Kokumi intensity is rated according to a scale from 0 to 5 (with 5 most intensive). The additive is added to a consumable and the sample is homogenised. The samples are presented to the sensory panel directly after homogenisation. The sensory panel in all tests included 8 trained individuals.
Chicken Broth is prepared by dilution of 3 g chicken broth concentrate (Gourmet Bouillon Huhn; Maggi, Singen, Germany) with 100 ml water (Evian). Additives are added as specified in table below.
For each sample, kokumi intensity is rated and panelists are asked to describe sensory characteristics.

[2] = test system: trained sensory panel; experiment: Sensory triangle test, kokumi compounds in ketchup; conditions: 2500 ppm; for Panelists indicating more meaty, bouillon-like, intensified overall taste: panel of 8
Experimental: Unless otherwise indicated, all sensory tests are triangle tests and are performed according to the guidelines in “[…] von […]-und Bedarfsgegenständegesetz)”; L 00.90 7, Untersuchung von Lebensmitteln, Sensorische […] Deutschen Norm DIN ISO 4120, Ausgabe Januar 1995), as follows: All sensory analyses are performed in a sensory panel room at 22-25° C. over three different sessions by a trained panel of 8 to 10 individuals. For recording the taste profiles, samples are prepared as indicated in the examples below. Taste profiles of samples are determined in a triangle test in three different sessions. Panellists refrain from eating or drinking for at least 1 hour prior to the session. At the start of the session and before each trial, the subject rinsed with water and expectorated. The participants receive a set of two blanks and one taste sample. Liquid samples are swirled around in the mouth briefly and expectorated. Solid samples are chewed for 20 seconds and then expectorated. […] Each sample with additive is compared to two reference samples without additives. Kokumi intensity is rated according to a scale from 0 to 5 (with 5 most intensive). The additive is added to a consumable and the sample is homogenised. The samples are presented to the sensory panel directly after homogenisation. The sensory panel in all tests included 8 trained individuals. Compounds as indicated in the table below are added to ketchup (Kraft) in a concentration of 2500 ppm.

[3] = test system: trained sensory panel; experiment: Sensory triangle test, kokumi compounds in tomato juice; conditions: for Panelists preferring the sample: panel of 8; for Test results (taste description): versus reference without additives
Experimental: Unless otherwise indicated, all sensory tests are triangle tests and are performed according to the guidelines in “[…] von […]-und Bedarfsgegenständegesetz)”; L 00.90 7, Untersuchung von Lebensmitteln, Sensorische […] Deutschen Norm DIN ISO 4120, Ausgabe Januar 1995), as follows: All sensory analyses are performed in a sensory panel room at 22-25° C. over three different sessions by a trained panel of 8 to 10 individuals. For recording the taste profiles, samples are prepared as indicated in the examples below. Taste profiles of samples are determined in a triangle test in three different sessions. Panellists refrain from eating or drinking for at least 1 hour prior to the session. At the start of the session and before each trial, the subject rinsed with water and expectorated. The participants receive a set of two blanks and one taste sample. Liquid samples are swirled around in the mouth briefly and expectorated. Solid samples are chewed for 20 seconds and then expectorated. […] Each sample with additive is compared to two reference samples without additives. Kokumi intensity is rated according to a scale from 0 to 5 (with 5 most intensive). The additive is added to a consumable and the sample is homogenised. The samples are presented to the sensory panel directly after homogenisation. The sensory panel in all tests included 8 trained individuals. Compounds as indicated in the table below are added to tomato juice (Albi, Germany) in the concentrations indicated below.

[4] = additive 10 mmol/L, pH 6.5, scale 0 to 5 (5 most intensive), broth without additives rated 2

N[C@@H](CCC(=O)N[C@@H](CS)C(=O)NCC(=O)O)C(=O)O [GSH, reduced form, Gamma-L-glutamyl-L-cysteinyl-glycine]
Kokumi intensity (0-5) [1, 4]: 3.5

CCOC(=O)CC(SC[C@H](NC(=O)CC[C@H](N)C(=O)O)C(=O)O)C(=O)OCC (stereo partly drawn) [S-(α,β-dicarboxyethyl diethylester) γ-L-glutamyl-L-cysteine]
Panelists indicating more meaty, bouillon-like, intensified overall taste [2]: 7 out of 8 | Kokumi intensity (0-5) [1, 4]: 4.5 | Panelists preferring the sample ([3]; 1000 ppm): all panelists | Test results (taste description) ([3]; 1000 ppm): even more pronounced kokumi sensation

COC(=O)CC(SC[C@H](NC(=O)CC[C@H](N)C(=O)O)C(=O)NCC(=O)O)C(=O)OC (stereo partly drawn) [S-(α,β-dicarboxyethyl dimethylester) γ-L-glutamyl-L-cysteinyl-glycine]
Kokumi intensity (0-5) [1, 4]: 3.5

CCCOC(=O)CC(SC[C@H](NC(=O)CC[C@H](N)C(=O)O)C(=O)O)C(=O)OCCC (stereo partly drawn) [S-(α,β-dicarboxyethyl dipropylester) γ-L-glutamyl-L-cysteine]
Sensory descriptors ([1]; additive 10 mmol/L): bitter

N[C@@H](CCC(=O)O)C(=O)[O-].[Na+] [MSG, mono sodium glutamate]
Kokumi intensity (0-5) [1, 4]: 2 | Sensory descriptors ([1]; additive 10 mmol/L): higher umami (taste of MSG) intensity; also recorded: no effect on mouthfulness and complexity of the taste profile; also recorded: Increased umami taste

CCCOC(=O)CC(SC[C@H](NC(=O)CC[C@H](N)C(=O)O)C(=O)NCC(=O)O)C(=O)OCCC (stereo partly drawn) [S-(α,β-dicarboxyethyl dipropylester) γ-L-glutamyl-L-cysteinyl-glycine]
Sensory descriptors ([1]; additive 10 mmol/L): bitter

COC(=O)CC(SC[C@H](NC(=O)CC[C@H](N)C(=O)O)C(=O)O)C(=O)OC (stereo partly drawn) [S-(α,β-dicarboxyethyl dimethylester) γ-L-glutamyl-L-cysteine]
Kokumi intensity (0-5) [1, 4]: 4.5

CCOC(=O)CC(SC[C@H](NC(=O)CC[C@H](N)C(=O)O)C(=O)NCC(=O)O)C(=O)OCC (stereo partly drawn) [S-(α,β-dicarboxyethyl diethylester) γ-L-glutamyl-L-cysteinyl-glycine]
Observed effect compared to S-(α,β-dicarboxyethyl diethylester) γ-L-glutamyl-L-cysteine [2]: lower | Panelists indicating more meaty, bouillon-like, intensified overall taste [2]: 7 out of 8 | Kokumi intensity (0-5) [1, 4]: 3.5 | Panelists preferring the sample ([3]; 1000 ppm): 6 out of 8 | Test results (taste description) ([3]; 1000 ppm): more intensive and well-balanced kokumi taste | Test results (taste description) ([3]; 5000 ppm): increased with ascending concentrations

[Cl-].[Na+] [NaCl]
Kokumi intensity (0-5) ([1]; additive 30 mmol/L, pH 6.5, scale 0 to 5, broth without additives rated 2): 2 | Sensory descriptors ([1]; additive 30 mmol/L): more salty than the negative control; also recorded: no effect on mouthfulness and complexity of the taste profile; also recorded: increased salty taste
